Measurements as given in ChEMBL document CHEMBL5678810.

Experiments:
[1] = biological target: Fibroblast growth factor receptor 2 (Homo sapiens) (UniProt P21802); test: Inhibition of T7 bacteriophage fused human FGFR2 at 10 uM by KINOMEscan analysis relative to control; values are per cent of control
[2] = biological target: LIM domain kinase 1 (Homo sapiens) (UniProt P53667); test: Inhibition of T7 bacteriophage fused human LIMK1 at 10 uM by KINOMEscan analysis relative to control; values are per cent of control
[3] = biological target: Myosin light chain kinase, smooth muscle (Homo sapiens) (UniProt Q15746); test: Inhibition of T7 bacteriophage fused human MYLK at 10 uM by KINOMEscan analysis relative to control; values are per cent of control
[4] = biological target: Protein kinase C epsilon type (Homo sapiens) (UniProt Q02156); test: Inhibition of T7 bacteriophage fused human PRKCE at 10 uM by KINOMEscan analysis relative to control
[5] = biological target: Glycogen synthase kinase-3 beta (Homo sapiens) (UniProt P49841); test: Inhibition of T7 bacteriophage fused human GSK3B at 10 uM by KINOMEscan analysis relative to control; values are per cent of control
[6] = tested on: Phosphatidylinositol 4,5-bisphosphate 3-kinase catalytic subunit alpha isoform (Homo sapiens), P42336 [E542K]; test: Inhibition of T7 bacteriophage fused human PIK3CA E542K mutant at 10 uM by KINOMEscan analysis relative to control
[7] = biological target: Fibroblast growth factor receptor 3 (Homo sapiens) (UniProt P22607); test: Inhibition of T7 bacteriophage fused human FGFR3 at 10 uM by KINOMEscan analysis relative to control; values are per cent of control
[8] = biological target: Calcium/calmodulin-dependent protein kinase kinase 2 (Homo sapiens) (UniProt Q96RR4); test: Inhibition of T7 bacteriophage fused human CAMKK2 at 10 uM by KINOMEscan analysis relative to control
[9] = biological target: Calcium/calmodulin-dependent protein kinase type II subunit beta (Homo sapiens) (UniProt Q13554); test: Inhibition of T7 bacteriophage fused human CAMK2B at 10 uM by KINOMEscan analysis relative to control
[10] = tested on: Receptor-type tyrosine-protein kinase FLT3 (Homo sapiens), P36888 [R834Q]; test: Inhibition of T7 bacteriophage fused human FLT3 R834Q mutant at 10 uM by KINOMEscan analysis relative to control
[11] = biological target: Cyclin-dependent kinase 3 (Homo sapiens) (UniProt Q00526); test: Inhibition of T7 bacteriophage fused human CDK3 at 10 uM by KINOMEscan analysis relative to control
[12] = biological target: Phosphorylase b kinase gamma catalytic chain, liver/testis isoform (Homo sapiens) (UniProt P15735); test: Inhibition of T7 bacteriophage fused human PHKG2 at 10 uM by KINOMEscan analysis relative to control
[13] = tested on: Hepatocyte growth factor receptor (Homo sapiens), P08581 [Y1235D]; test: Inhibition of T7 bacteriophage fused human MET Y1235D mutant at 10 uM by KINOMEscan analysis relative to control
[14] = biological target: Interleukin-1 receptor-associated kinase 3 (Homo sapiens) (UniProt Q9Y616); test: Inhibition of T7 bacteriophage fused human IRAK3 at 10 uM by KINOMEscan analysis relative to control
[15] = tested on: Mast/stem cell growth factor receptor Kit (Homo sapiens), P10721 [V559D]; test: Inhibition of T7 bacteriophage fused human KIT V559D mutant at 10 uM by KINOMEscan analysis relative to control
[16] = biological target: LIM domain kinase 2 (Homo sapiens) (UniProt P53671); test: Inhibition of T7 bacteriophage fused human LIMK2 at 10 uM by KINOMEscan analysis relative to control
[17] = biological target: Mitogen-activated protein kinase 6 (Homo sapiens) (UniProt Q16659); test: Inhibition of T7 bacteriophage fused human ERK3 at 10 uM by KINOMEscan analysis relative to control
[18] = tested on: Tyrosine-protein kinase ABL1 (Homo sapiens), P00519 [H396P]; test: Inhibition of T7 bacteriophage fused human phosphorylated ABL1 H396P mutant at 10 uM by KINOMEscan analysis relative to control
[19] = biological target: Casein kinase I isoform gamma-3 (Homo sapiens) (UniProt Q9Y6M4); test: Inhibition of T7 bacteriophage fused human CSNK1G3 at 10 uM by KINOMEscan analysis relative to control; values are per cent of control
[20] = biological target: cAMP-dependent protein kinase catalytic subunit alpha (Homo sapiens) (UniProt P17612); test: Inhibition of T7 bacteriophage fused human PKAC-alpha at 10 uM by KINOMEscan analysis relative to control
[21] = biological target: RAC-gamma serine/threonine-protein kinase (Homo sapiens) (UniProt Q9Y243); test: Inhibition of T7 bacteriophage fused human AKT3 at 10 uM by KINOMEscan analysis relative to control
[22] = biological target: Ephrin type-A receptor 1 (Homo sapiens) (UniProt P21709); test: Inhibition of T7 bacteriophage fused human EPHA1 at 10 uM by KINOMEscan analysis relative to control
[23] = biological target: Serine/threonine-protein kinase pim-1 (Homo sapiens) (UniProt P11309); test: Inhibition of T7 bacteriophage fused human PIM1 at 10 uM by KINOMEscan analysis relative to control
[24] = biological target: Phosphorylase b kinase gamma catalytic chain, skeletal muscle/heart isoform (Homo sapiens) (UniProt Q16816); test: Inhibition of T7 bacteriophage fused human PHKG1 at 10 uM by KINOMEscan analysis relative to control
[25] = biological target: Insulin receptor-related protein (Homo sapiens) (UniProt P14616); test: Inhibition of T7 bacteriophage fused human INSRR at 10 uM by KINOMEscan analysis relative to control; values are per cent of control
[26] = tested on: Mast/stem cell growth factor receptor Kit (Homo sapiens), P10721 [D816H]; test: Inhibition of T7 bacteriophage fused human KIT D816H mutant at 10 uM by KINOMEscan analysis relative to control
[27] = biological target: Maternal embryonic leucine zipper kinase (Homo sapiens) (UniProt Q14680); test: Inhibition of T7 bacteriophage fused human MELK at 10 uM by KINOMEscan analysis relative to control
[28] = biological target: Inhibitor of nuclear factor kappa-B kinase subunit beta (Homo sapiens) (UniProt O14920); test: Inhibition of T7 bacteriophage fused human IKK-beta at 10 uM by KINOMEscan analysis relative to control
[29] = biological target: Serine/threonine-protein kinase LATS1 (Homo sapiens) (UniProt O95835); test: Inhibition of T7 bacteriophage fused human LATS1 at 10 uM by KINOMEscan analysis relative to control
[30] = biological target: Ephrin type-B receptor 3 (Homo sapiens) (UniProt P54753); test: Inhibition of T7 bacteriophage fused human EPHB3 at 10 uM by KINOMEscan analysis relative to control

Sequence of Interleukin-1 receptor-associated kinase 3 (Homo sapiens) (Q9Y616 whole entry, the tested form may be a part): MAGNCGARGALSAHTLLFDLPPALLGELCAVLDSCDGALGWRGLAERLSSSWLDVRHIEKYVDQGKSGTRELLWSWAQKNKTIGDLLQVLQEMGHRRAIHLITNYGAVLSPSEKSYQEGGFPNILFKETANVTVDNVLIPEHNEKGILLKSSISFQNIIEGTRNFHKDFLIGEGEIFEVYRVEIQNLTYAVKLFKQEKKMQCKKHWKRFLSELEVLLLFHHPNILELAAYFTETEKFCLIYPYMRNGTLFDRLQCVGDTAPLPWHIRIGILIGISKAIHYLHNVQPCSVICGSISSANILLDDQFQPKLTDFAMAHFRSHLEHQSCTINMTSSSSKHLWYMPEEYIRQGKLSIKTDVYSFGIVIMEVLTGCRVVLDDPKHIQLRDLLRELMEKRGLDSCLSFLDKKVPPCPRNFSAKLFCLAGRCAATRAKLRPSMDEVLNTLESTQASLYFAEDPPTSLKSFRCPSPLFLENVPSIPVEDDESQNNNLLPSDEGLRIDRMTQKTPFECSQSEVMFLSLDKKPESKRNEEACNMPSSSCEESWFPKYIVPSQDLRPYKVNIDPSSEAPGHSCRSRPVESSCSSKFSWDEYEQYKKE
Sequence of Hepatocyte growth factor receptor (Homo sapiens), P08581 [Y1235D] (P08581 whole entry Y1235D, the tested form may be a part): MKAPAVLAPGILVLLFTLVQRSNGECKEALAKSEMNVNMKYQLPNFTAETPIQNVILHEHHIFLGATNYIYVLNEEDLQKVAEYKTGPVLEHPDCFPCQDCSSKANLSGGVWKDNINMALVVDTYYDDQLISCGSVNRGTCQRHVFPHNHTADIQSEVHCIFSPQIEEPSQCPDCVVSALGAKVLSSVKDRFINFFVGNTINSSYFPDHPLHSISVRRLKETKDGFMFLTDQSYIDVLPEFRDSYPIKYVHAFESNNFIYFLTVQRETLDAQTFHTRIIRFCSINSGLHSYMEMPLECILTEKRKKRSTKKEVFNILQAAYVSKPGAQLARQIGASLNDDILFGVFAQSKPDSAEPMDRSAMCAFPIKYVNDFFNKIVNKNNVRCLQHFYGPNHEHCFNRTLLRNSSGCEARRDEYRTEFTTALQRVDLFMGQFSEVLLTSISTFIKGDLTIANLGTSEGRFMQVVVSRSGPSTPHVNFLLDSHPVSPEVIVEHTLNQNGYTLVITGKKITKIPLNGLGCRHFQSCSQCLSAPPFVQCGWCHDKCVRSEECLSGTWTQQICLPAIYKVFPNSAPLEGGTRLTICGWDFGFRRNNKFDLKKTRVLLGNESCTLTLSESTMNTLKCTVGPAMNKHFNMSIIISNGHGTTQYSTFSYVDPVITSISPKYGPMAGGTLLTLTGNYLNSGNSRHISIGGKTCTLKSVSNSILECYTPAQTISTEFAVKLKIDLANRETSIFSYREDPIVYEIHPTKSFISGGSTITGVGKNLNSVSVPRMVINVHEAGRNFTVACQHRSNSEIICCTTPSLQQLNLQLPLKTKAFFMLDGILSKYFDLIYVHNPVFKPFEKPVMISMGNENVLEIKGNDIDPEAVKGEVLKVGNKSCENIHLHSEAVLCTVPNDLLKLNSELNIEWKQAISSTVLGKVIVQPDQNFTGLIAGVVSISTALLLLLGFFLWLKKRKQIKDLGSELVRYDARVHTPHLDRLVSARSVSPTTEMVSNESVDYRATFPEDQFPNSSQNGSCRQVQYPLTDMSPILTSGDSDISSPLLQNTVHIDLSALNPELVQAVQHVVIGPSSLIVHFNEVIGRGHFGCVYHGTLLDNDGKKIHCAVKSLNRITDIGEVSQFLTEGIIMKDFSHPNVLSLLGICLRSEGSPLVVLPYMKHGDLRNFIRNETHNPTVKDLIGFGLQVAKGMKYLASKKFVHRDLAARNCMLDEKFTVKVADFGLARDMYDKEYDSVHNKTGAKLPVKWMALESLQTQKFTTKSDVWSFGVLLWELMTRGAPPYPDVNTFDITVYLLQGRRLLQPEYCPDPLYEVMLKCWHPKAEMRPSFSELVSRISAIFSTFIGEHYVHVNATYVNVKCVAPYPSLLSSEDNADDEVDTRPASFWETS
Sequence of Fibroblast growth factor receptor 2 (Homo sapiens) (P21802 22-821 limits assumed): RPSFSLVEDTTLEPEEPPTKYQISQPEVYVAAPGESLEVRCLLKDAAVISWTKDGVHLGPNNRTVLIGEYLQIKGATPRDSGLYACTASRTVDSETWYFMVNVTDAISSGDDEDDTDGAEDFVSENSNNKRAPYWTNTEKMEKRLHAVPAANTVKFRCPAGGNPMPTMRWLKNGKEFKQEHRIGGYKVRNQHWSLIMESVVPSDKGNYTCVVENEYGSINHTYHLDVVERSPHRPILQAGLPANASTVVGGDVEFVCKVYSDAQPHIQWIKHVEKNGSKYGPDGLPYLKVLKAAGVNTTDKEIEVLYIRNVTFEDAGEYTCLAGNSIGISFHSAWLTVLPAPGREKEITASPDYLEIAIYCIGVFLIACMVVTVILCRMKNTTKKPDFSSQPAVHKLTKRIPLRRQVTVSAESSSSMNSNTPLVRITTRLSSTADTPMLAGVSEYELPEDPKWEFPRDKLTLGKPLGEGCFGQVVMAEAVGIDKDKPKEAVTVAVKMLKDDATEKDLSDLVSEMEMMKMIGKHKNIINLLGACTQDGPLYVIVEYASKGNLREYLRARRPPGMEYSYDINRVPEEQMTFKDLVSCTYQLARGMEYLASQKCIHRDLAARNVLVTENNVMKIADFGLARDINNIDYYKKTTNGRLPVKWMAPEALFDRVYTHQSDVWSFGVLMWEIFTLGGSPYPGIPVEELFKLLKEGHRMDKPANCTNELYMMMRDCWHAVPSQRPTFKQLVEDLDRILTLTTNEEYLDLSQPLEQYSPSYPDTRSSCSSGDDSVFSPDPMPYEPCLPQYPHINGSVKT
Sequence of Phosphorylase b kinase gamma catalytic chain, liver/testis isoform (Homo sapiens) (P15735 whole entry, the tested form may be a part, canonical isoform): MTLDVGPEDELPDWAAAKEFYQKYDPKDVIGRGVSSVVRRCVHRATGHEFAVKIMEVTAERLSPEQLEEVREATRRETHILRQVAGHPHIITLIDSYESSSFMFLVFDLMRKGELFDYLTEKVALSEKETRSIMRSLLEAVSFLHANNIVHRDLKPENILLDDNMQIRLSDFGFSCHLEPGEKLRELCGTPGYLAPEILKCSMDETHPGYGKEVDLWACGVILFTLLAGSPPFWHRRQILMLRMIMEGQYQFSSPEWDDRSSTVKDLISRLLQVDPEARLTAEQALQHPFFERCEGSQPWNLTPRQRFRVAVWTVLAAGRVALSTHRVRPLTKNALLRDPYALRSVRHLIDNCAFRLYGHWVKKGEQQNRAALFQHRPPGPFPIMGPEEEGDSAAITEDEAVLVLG
Sequence of Mast/stem cell growth factor receptor Kit (Homo sapiens), P10721 [D816H] (P10721 whole entry D816H, the tested form may be a part): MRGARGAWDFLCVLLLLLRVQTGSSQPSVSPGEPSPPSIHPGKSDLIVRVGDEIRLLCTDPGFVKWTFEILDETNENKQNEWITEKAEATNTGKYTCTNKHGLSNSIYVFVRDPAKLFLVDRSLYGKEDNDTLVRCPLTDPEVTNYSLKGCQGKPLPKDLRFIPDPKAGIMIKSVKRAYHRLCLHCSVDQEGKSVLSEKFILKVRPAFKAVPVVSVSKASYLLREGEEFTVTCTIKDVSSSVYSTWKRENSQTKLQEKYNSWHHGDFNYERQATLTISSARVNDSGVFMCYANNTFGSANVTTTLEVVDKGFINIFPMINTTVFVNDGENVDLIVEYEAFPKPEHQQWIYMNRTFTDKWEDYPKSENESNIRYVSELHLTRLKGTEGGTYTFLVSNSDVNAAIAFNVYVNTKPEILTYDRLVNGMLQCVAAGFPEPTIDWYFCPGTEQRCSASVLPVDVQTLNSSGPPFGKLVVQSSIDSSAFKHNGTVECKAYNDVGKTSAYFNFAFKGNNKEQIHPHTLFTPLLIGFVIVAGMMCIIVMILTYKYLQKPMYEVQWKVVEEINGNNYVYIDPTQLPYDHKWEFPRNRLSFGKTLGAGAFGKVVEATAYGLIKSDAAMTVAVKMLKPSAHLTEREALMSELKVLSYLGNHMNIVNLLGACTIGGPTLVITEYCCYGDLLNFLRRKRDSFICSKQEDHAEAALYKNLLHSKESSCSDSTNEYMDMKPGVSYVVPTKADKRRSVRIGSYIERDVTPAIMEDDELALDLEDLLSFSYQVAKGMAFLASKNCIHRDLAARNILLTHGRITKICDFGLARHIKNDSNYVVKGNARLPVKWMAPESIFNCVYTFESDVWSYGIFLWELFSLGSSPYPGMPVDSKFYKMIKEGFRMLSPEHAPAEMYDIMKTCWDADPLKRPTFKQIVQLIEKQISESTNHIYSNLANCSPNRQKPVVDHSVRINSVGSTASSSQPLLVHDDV
Sequence of Casein kinase I isoform gamma-3 (Homo sapiens) (Q9Y6M4 whole entry, looked up, the tested form may be a part, canonical isoform): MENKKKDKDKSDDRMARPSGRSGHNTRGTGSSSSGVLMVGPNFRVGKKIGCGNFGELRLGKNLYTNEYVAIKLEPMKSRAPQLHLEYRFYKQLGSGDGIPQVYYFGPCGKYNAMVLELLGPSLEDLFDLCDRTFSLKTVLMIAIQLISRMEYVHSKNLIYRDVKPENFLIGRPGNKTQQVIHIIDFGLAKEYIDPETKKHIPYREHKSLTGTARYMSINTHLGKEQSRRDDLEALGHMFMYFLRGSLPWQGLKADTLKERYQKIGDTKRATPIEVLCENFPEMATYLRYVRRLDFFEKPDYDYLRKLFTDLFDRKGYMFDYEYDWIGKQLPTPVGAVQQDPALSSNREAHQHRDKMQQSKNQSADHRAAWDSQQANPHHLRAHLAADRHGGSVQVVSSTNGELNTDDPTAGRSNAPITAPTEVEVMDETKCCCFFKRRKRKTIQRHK
Sequence of Serine/threonine-protein kinase pim-1 (Homo sapiens) (P11309 whole entry, looked up, the tested form may be a part, canonical isoform): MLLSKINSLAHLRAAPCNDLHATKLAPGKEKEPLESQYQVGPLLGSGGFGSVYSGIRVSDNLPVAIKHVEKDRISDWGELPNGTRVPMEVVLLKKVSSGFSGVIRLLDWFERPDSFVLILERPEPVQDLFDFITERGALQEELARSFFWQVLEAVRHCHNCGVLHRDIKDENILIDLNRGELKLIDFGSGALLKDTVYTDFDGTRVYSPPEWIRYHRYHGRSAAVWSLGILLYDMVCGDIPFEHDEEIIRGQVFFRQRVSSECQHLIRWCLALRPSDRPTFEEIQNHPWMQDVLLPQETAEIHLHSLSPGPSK

`COc1cc(N2CCC(N3CCN(C)CC3)CC2)ccc1Nc1ncc2c(n1)N(C)c1ccccc1C(=O)N2C` was tested, and the residual activity [1] was 95%, the residual activity [2] was 95% and the residual activity [3] was 8.7%. It also gave an inhibition [4] of 100%, a residual activity [5] of 88% and an inhibition [6] of 77%. It also gave a residual activity [7] of 80%, an inhibition [8] of 31% and an inhibition [9] of 62%. It also gave an inhibition [10] of 100%, an inhibition [11] of 100% and an inhibition [12] of 33%. It also gave an inhibition [13] of 100%, an inhibition [14] of 100% and an inhibition [15] of 100%. It also gave an inhibition [16] of 100%, an inhibition [17] of 100% and an inhibition [18] of 100%. The residual activity [19] was 93%, the inhibition [20] was 100% and the inhibition [21] was 100%. It also gave an inhibition [22] of 100%, an inhibition [23] of 100% and an inhibition [24] of 54%. For the same compound, the residual activity [25] was 97%, the inhibition [26] was 100% and the inhibition [27] was 100%. For the same compound, the inhibition [28] was 89%, the inhibition [29] was 100% and the inhibition [30] was 100%.
